Measurements reported in article PMC8664950, “Potent but transient immunosuppression of T-cells is a general feature of CD71^+ erythroid cells” (Communications Biology, 2021).

What was measured:
ARG2 = target: T1, ARG2 (Homo sapiens, UniProt P78540); assay: colorimetric urea-production arginase assay with recombinant enzyme; format: biochemical
T1 construct: recombinant human ARG2 (E. coli)
T1 sequence (P78540 23-354): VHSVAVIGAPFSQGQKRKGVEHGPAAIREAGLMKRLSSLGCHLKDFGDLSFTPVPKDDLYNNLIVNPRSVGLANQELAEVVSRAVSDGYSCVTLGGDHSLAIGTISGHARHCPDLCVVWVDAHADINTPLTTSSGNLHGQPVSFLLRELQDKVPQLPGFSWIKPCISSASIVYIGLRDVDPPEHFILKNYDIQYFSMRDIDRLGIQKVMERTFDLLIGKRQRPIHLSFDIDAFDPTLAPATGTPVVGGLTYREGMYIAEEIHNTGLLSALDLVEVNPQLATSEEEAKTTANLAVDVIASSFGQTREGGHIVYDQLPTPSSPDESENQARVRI

ARG1 = target: T2, ARG1 (Homo sapiens, UniProt P05089); assay: as above; format: biochemical
T2 construct: recombinant human ARG1 (E. coli)
T2 sequence (P05089 1-322): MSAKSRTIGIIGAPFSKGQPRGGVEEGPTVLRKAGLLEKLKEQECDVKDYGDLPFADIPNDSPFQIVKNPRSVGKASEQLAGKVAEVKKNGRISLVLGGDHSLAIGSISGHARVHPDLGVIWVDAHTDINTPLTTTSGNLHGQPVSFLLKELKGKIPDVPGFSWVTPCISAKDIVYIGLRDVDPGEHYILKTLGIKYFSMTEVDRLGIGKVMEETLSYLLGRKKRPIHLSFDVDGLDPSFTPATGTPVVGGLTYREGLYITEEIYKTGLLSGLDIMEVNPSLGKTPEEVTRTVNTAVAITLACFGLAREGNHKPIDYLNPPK

NNc1ccccc1 [PHZ, phenylhydrazine]
IC50 (ARG2): 61 µM
IC50 (ARG1): 1020 µM
